Data from patent publication US20090209633A1, “Treatment of Pain With Resiniferatoxin and Related Analogs” (priority 2006, published 2009).

Molecular target: T1, native TRPV1 (Rattus norvegicus, UniProt O35433)
T1 construct: RTX-induced membrane currents on native TRPV1 in embryonic DRG neurons grown in culture; endogenous in cells; host or cells: primary rat E18 DRG neurons
Assay: Single-channel currents in cell-attached patches from DRG neurons
Type: cell-based
Set-up: Open time τ4 / Closed time τ1 / Closed time τ2 / Closed time τ3 / Closed time τ4: unit not given here
Details: for single-channel conductance / single-channel current amplitude / Po (single-channel open probability): cell-attached; for single-channel conductance / single-channel current amplitude: RTX, capsaicin 100 nM; for Closed time τ1 / Closed time τ2 / Closed time τ3 / Open time τ1 / Open time τ2 / Open time τ3 / Po (single-channel open probability): RTX 0.1 nM; for Closed time τ1 / Closed time τ2 / Closed time τ3 / Open time τ1 / Open time τ2 / Open time τ3 / Po (single-channel open probability) / Closed time τ4 / Open time τ4: CAP 100 nM; for slope conductance, inward limb / negative potentials: between 0 and −100 mV
Text: For single-channel recording in cell-attached patches from DRG neurons, the bath solution contained (mM): potassium gluconate 140, KCl 2.5, MgCl2 1, Hepes 5 and EGTA 1.5; pH adjusted to 7.35 with NaOH. The patch pipettes were made from glass capillaries (Drummond, Microcaps), coated with Sylgard (Dow Corning, Midland, Mich., USA). For cell-attached patches, the patch pipettes were filled with a solution that contained (mM): sodium gluconate 140, NaCl 10, MgCl2 1, Hepes 5 and EGTA 1.5; pH adjusted to 7.35 with NaOH. While recording from cell-attached patches, in order to avoid differences in the driving force because of the differences in the membrane potential, the external NaCl was replaced by an equal amount of KCl in order to nullify the membrane potential. For outside-out patches, the pipette solution contained (mM): sodium gluconate 90, NaCl 10, BAPTA 10, Hepes 10, K2ATP2 and GTP 0.25; pH adjusted to 7.35 with NaOH. The bath solution contained (mM): sodium gluconate 100, KCl 2.5, MgCl2 1, Hepes 5 and EGTA 1.5; pH adjusted to 7.35 with NaOH. All the experiments were performed at room temperature (21-23° C.). Agar-bridge electrodes were used to avoid changes in junction potential. The currents were recorded using a WPC 100 (Warner Instruments) or Axopatch 2B (Axon Instruments, Union City, Calif., USA) patch-clamp amplifier. Data were filtered at 10 kHz (Axopatch 2B), digitized (VR-10B, Instrutech Corp.), and stored on videotapes. For the analysis of amplitude and open probability (Po), the data were filtered at 2.5 kHz (−3 db frequency with an 8-pole low-pass Bessel filter, Warner Instruments) and digitized at 5 kHz. For dwell-time analysis, the data were filtered at 10 kHz and digitized at 50 kHz.
Single-channel analysis. Single-channel current amplitude and Po were estimated from all-point current amplitude histograms (Channel 2 software kindly provided by Michael Smith, Australian National University, Can berra, Australia) and fitted to Gaussian densities (Origin, OriginLab Corp., Northampton, Mass., USA). For current-voltage relationships, the amplitudes were determined by fitting a Gaussian curve to an all-point histogram. Po was determined using unedited segments of data, which were typically 1-5 min long. For multiple channel patches, the mean Po was measured as nPo, where n is the number of channels in the patch. Chord conductance was measured at +60 or −60 mV. […]
Single-channel currents were idealized using a modified Viterbi algorithm (QUB software, www.qub.buffalo.edu). Dwell-time distributions were fitted with mixtures of exponential densities using a method of maximum likelihood. Additional exponential components were incorporated only if the maximum log likelihood increased more than 2 log likelihood units. (Chung et al. 1990; Qin et al. 1996; Premkumar et al. 1997.) A dead time (Td) of 50 μs was imposed retrospectively, in that, events shorter than 50 μs were considered to be a part of the adjoining sojourns.
Single-channel conductance. To further evaluate the properties of TRPV1 activation by RTX, we recorded single-channel currents from cell-attached and excised patches from DRG neurons and oocytes heterologously expressing TRPV1. All recordings were carried out in the absence of extracellular calcium to avoid tachyphylaxis and desensitization of channel activity. (Docherty et al. 1996; Caterina et al. 1997; Koplas et al. 1997.) Single-channel current activity in cell-attached patches from DRG neurons were recorded at −60 and +60 mV, as shown in FIG. 3.

T1 sequence (O35433 whole entry): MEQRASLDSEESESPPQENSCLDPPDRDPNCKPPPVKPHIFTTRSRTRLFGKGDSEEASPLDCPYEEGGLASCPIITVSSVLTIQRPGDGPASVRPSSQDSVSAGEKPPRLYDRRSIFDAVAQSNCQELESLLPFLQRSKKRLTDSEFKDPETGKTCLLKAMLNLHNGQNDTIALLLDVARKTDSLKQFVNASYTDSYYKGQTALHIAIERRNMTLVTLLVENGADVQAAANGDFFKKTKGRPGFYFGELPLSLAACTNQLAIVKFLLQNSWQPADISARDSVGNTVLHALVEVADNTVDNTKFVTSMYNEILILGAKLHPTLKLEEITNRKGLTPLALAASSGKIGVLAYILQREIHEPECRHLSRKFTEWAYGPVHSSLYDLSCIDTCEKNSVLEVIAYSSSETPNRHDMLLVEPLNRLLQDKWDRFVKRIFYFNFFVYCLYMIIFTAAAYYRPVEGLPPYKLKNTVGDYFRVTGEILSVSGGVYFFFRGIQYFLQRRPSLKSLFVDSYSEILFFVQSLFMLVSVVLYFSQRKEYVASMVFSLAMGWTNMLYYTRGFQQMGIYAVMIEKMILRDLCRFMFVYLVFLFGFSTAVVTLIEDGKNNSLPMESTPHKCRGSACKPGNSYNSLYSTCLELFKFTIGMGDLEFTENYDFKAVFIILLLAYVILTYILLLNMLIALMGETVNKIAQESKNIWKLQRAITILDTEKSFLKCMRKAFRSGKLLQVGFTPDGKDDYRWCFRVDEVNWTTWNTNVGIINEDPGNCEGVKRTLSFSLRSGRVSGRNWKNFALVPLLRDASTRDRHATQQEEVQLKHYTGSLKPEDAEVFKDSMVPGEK

`C=C(C)[C@]12C[C@@H](C)[C@@]34O[C@](Cc5ccccc5)(O[C@@H]1[C@@H]3C=C(COC(=O)Cc1ccc(O)c(OC)c1)C[C@]1(O)C(=O)C(C)=C[C@@H]41)O2` [RTX, resiniferatoxin] showed a mean open time (+60 mV) of 7.9 ms, a single-channel conductance (+60 mV) of 100±2.2 pS and a single-channel current amplitude (+60 mV) of 6.02±0.14 pA. The “change of Po with increasing concentration” value (RTX 0.1 to 20 nM) was “did not change”, the “Closed time τ1” value (Vm +60 mV) was 0.1±0.008 and the “Closed time τ2” value (Vm +60 mV) was 0.46±0.02. The “Closed time τ3” value (Vm +60 mV) was 8.7±3.9, the “Open time τ1” value (Vm +60 mV) was 1.6 ± 1.2 ms and the “Open time τ2” value (Vm +60 mV) was 6.58 ± 0.56 ms. For the same molecule, the “Open time τ3” value (Vm +60 mV) was 12 ± 1 ms, the “Po (single-channel open probability)” value (Vm +60 mV) was 0.98±0.02 and the “Closed time τ1” value (Vm −60 mV) was 0.05±0.007. For the same molecule, the “Closed time τ2” value (Vm −60 mV) was 0.12±0.005, the “Closed time τ3” value (Vm −60 mV) was 1.1±0.26 and the “Open time τ1” value (Vm −60 mV) was 0.46 ± 0.1 ms. The “Open time τ2” value (Vm −60 mV) was 5.57 ± 2.4 ms, the “Open time τ3” value (Vm −60 mV) was 10.2 ± 1.8 ms and the “Po (single-channel open probability)” value (Vm −60 mV) was 0.94±0.02. The “slope conductance, outward limb / positive potentials” value (between 0 and +100 mV) was 126 pS, the “slope conductance, inward limb / negative potentials” value was roughly 30 pS and the “Po of RTX-induced currents” value (cell-attached as well as outside-out patches, negative and positive potentials) was roughly 0.9. For the same molecule, the “reversal potential of single-channel currents” value (recorded −100 to +100 mV) was −2.9 mV, the “concentration that could maximally activate the receptor” value (single-channel recording) was 0.1 to 0.2 nM and the mean open time (−60 mV) was 7.5 ms. It also gave a single-channel conductance (−60 mV) of 38.3±3.5 pS and a single-channel current amplitude (−60 mV) of 2.3±0.21 pA.
In the case of `COc1cc(CNC(=O)CCCC/C=C/C(C)C)ccc1O` [capsaicin], the mean open time (+60 mV) is reported as 3.8 ms, the single-channel conductance (+60 mV) is reported as 95±0.1 pS and the single-channel current amplitude (+60 mV) is reported as 5.67±0.06 pA. The “Closed time τ4” value (Vm +60 mV) was 70.84±47, the “Open time τ4” value (Vm +60 mV) was 14.7±2.6 and the “Closed time τ4” value (Vm +60 mV, listed as CAP) was 70.84 ± 47. For the same molecule, the “Open time τ4” value (Vm +60 mV, listed as CAP) was 14.7 ± 2.6, the “Closed time τ1” value (Vm +60 mV) was 0.06±0.02 and the “Closed time τ2” value (Vm +60 mV) was 0.67±0.39. The “Closed time τ3” value (Vm +60 mV) was 1.66±0.39, the “Open time τ1” value (Vm +60 mV) was 0.14 ± 0.04 ms and the “Open time τ2” value (Vm +60 mV) was 0.7 ± 0.13 ms. The “Open time τ3” value (Vm +60 mV) was 3.83 ± 0.62 ms, the “Closed time τ1” value (Vm +60 mV, listed as CAP) was 0.06 ± 0.02 and the “Closed time τ2” value (Vm +60 mV, listed as CAP) was 0.67 ± 0.39. The “Closed time τ3” value (Vm +60 mV, listed as CAP) was 1.66 ± 0.39, the “Open time τ1” value (Vm +60 mV, listed as CAP) was 0.14 ± 0.04 ms and the “Open time τ2” value (Vm +60 mV, listed as CAP) was 0.7 ± 0.13 ms. The “Open time τ3” value (Vm +60 mV, listed as CAP) was 3.83 ± 0.62 ms, the “Po (single-channel open probability)” value (Vm +60 mV) was 0.53±0.04 and the “Po (single-channel open probability)” value (Vm +60 mV, listed as CAP) was 0.53 ± 0.04. The “Closed time τ4” value (Vm −60 mV) was 30.8±12.4, the “Closed time τ4” value (Vm −60 mV, listed as CAP) was 30.8 ± 12.4 and the “Closed time τ1” value (Vm −60 mV) was 0.13±0.02. The “Closed time τ2” value (Vm −60 mV) was 0.79±0.12, the “Closed time τ3” value (Vm −60 mV) was 3.47±0.59 and the “Open time τ1” value (Vm −60 mV) was 0.11 ± 0.01 ms. For the same molecule, the “Open time τ2” value (Vm −60 mV) was 0.76 ± 0.18 ms, the “Open time τ3” value (Vm −60 mV) was 2.61 ± 0.84 ms and the “Closed time τ1” value (Vm −60 mV, listed as CAP) was 0.13 ± 0.02. The “Closed time τ2” value (Vm −60 mV, listed as CAP) was 0.79 ± 0.12, the “Closed time τ3” value (Vm −60 mV, listed as CAP) was 3.47 ± 0.59 and the “Open time τ1” value (Vm −60 mV, listed as CAP) was 0.11 ± 0.01 ms. The “Open time τ2” value (Vm −60 mV, listed as CAP) was 0.76 ± 0.18 ms, the “Open time τ3” value (Vm −60 mV, listed as CAP) was 2.61 ± 0.84 ms and the “Po (single-channel open probability)” value (Vm −60 mV) was 0.1±0.04. For the same molecule, the “Po (single-channel open probability)” value (Vm −60 mV, listed as CAP) was 0.1 ± 0.04, the “slope conductance, inward limb / negative potentials” value was 41 pS and the “conductance level at which currents predominantly dwelled” value (capsaicin-induced currents) was roughly 95 pS. It also gave a mean open time (−60 mV) of 1.27 ms, a single-channel conductance (−60 mV) of 40±1.95 pS and a single-channel current amplitude (−60 mV) of 2.4±0.12 pA.
